Experimental data from patent US20260137677A1, “PROTACS USEFUL AGAINST THE MAIN PROTEASE SARS-COV-2” (Tocris Cookson Limited, priority 2022, published 2026).

How the values were obtained:
[1] = target: T1, recombinant SARS-CoV-2 main protease (Mpro) (Severe acute respiratory syndrome coronavirus 2, UniProt P0DTD1); assay: biochemical; settings: FRET assay, Mpro 50 nM, substrate 10 μM
T1 construct: the main protease (Mpro; also called 3CLpro) which has an essential role in processing the polyproteins

[2] = system: SARS-CoV-2 (SARS-CoV2/ZG/297-20) in Vero E6 cells; assay: microbe, parasite or virus in culture; assay type: cell-based; settings: Severe acute respiratory syndrome coronavirus 2, Vero C1008, 72 h; for inhibition at 10 µM: read-out: Antiviral Activity 10 uM; for inhibition at 50 µM: read-out: Antiviral Activity 50 uM

Row | Compound | IC50 [1] | inhibition at 10 µM [2] | inhibition at 50 µM [2]
1 | O=C1CCC(N2C(=O)c3cccc(NCCOCCOCCOCCNC(=O)C(NC(=O)[C@@H](c4cccnc4)N(C(=O)c4ccco4)c4ccc5c(c4)oc4ccccc45)c4ccccc4)c3C2=O)C(=O)N1 (mixture of isomers) [TS297F1] | < 1000 nM | < 0% | < 0%
2 | O=C1CCC(N2C(=O)c3cccc(NCCCCCNC(=O)C(NC(=O)[C@@H](c4cccnc4)N(C(=O)c4ccco4)c4ccc5c(c4)oc4ccccc45)c4ccccc4)c3C2=O)C(=O)N1 (mixture of isomers) [TS301F1] | 10000 to 25000 nM | < 0% | < 0%
3 | O=C1CCC(N2C(=O)c3cccc(NCCOCCOCCOCCOCCNC(=O)C(NC(=O)[C@@H](c4cccnc4)N(C(=O)c4ccco4)c4ccc5c(c4)oc4ccccc45)c4ccccc4)c3C2=O)C(=O)N1 (mixture of isomers) [TS303F1] | < 1000 nM | < 0% | < 0%
4 | O=C1CCC(N2C(=O)c3cccc(NCCOCCNC(=O)C(NC(=O)[C@@H](c4cccnc4)N(C(=O)c4ccco4)c4ccc5c(c4)oc4ccccc45)c4ccccc4)c3C2=O)C(=O)N1 (mixture of isomers) [TS312F1] | < 10000 nM | < 0% | < 0%
5 | O=C1CCC(N2C(=O)c3cccc(NCCCCNC(=O)[C@@H](NC(=O)C(c4cccnc4)N(C(=O)c4ccco4)c4ccc5c(c4)oc4ccccc45)c4ccccc4)c3C2=O)C(=O)N1 (mixture of isomers) [TS313F1] | < 1000 nM | < 25% | < 0%
6 | O=C1CCC(N2C(=O)c3cccc(NCCNC(=O)[C@@H](NC(=O)[C@@H](c4cccnc4)N(C(=O)c4ccco4)c4ccc5c(c4)oc4ccccc45)c4ccccc4)c3C2=O)C(=O)N1 (mixture of isomers) [TS365F1] | < 1000 nM | < 75% | < 25%
7 | O=C1CCC(N2C(=O)c3cccc(NCCCCCCCCNC(=O)[C@@H](NC(=O)C(c4cccnc4)N(C(=O)c4ccco4)c4ccc5c(c4)oc4ccccc45)c4ccccc4)c3C2=O)C(=O)N1 (mixture of isomers) [TS369F1] | > 25000 nM | < 25% | < 25%
8 | O=C1CCC(N2C(=O)c3cccc(NCCNC(=O)[C@H](NC(=O)[C@@H](c4cccnc4)N(C(=O)c4ccco4)c4ccc(-c5ccccc5)cc4)c4ccccc4)c3C2=O)C(=O)N1 (mixture of isomers) [TS449F1] | < 100 nM | < 0% | < 0%
9 | O=C1CCC(N2C(=O)c3cccc(NCCCCNC(=O)[C@H](NC(=O)[C@@H](c4cccnc4)N(C(=O)c4ccco4)c4ccc(-c5ccccc5)cc4)c4ccccc4)c3C2=O)C(=O)N1 (mixture of isomers) [TS451F1] | < 10000 nM | < 0% | < 0%
10 | O=C1CCC(N2C(=O)c3cccc(NCCOCCOCCOCCNC(=O)[C@H](NC(=O)[C@@H](c4cccnc4)N(C(=O)c4ccco4)c4ccc(-c5ccccc5)cc4)c4ccccc4)c3C2=O)C(=O)N1 (mixture of isomers) [TS455F1] | < 100 nM | < 0% | < 0%
11 | O=C1CCC(N2C(=O)c3cccc(NCCCNC(=O)[C@@H](NC(=O)[C@@H](c4cccnc4)N(C(=O)c4ccco4)c4ccc(-c5ccccc5)cc4)c4ccccc4)c3C2=O)C(=O)N1 (single isomer, unassigned) [TS450F1] | < 1000 nM | < 0% | < 0%
12 | O=C1CCC(N2C(=O)c3cccc(NCCOCCNC(=O)[C@@H](NC(=O)[C@@H](c4cccnc4)N(C(=O)c4ccco4)c4ccc(-c5ccccc5)cc4)c4ccccc4)c3C2=O)C(=O)N1 (single isomer, unassigned) [TS453F1b] | < 1000 nM | < 0% | < 0%
13 | O=C1CCC(N2C(=O)c3cccc(NCCOCCOCCNC(=O)C(NC(=O)C(c4cccnc4)N(C(=O)c4ccco4)c4ccc(-c5ccccc5)cc4)c4ccccc4)c3C2=O)C(=O)N1 (single isomer, unassigned) [TS454F1] | < 1000 nM | < 0% | < 0%
14 | O=C1CCC(N2C(=O)c3ccc(NCCOCCNC(=O)[C@H](NC(=O)[C@@H](c4cccnc4)N(C(=O)c4ccco4)c4ccc(-c5ccccc5)cc4)c4ccccc4)cc3C2=O)C(=O)N1 (single isomer, unassigned) [TS462] | < 1000 nM | < 25% | < 25%
15 | O=C1CCC(N2C(=O)c3ccc(NCCOCCOCCNC(=O)[C@H](NC(=O)[C@@H](c4cccnc4)N(C(=O)c4ccco4)c4ccc(-c5ccccc5)cc4)c4ccccc4)cc3C2=O)C(=O)N1 (single isomer, unassigned) [TS464] | < 1000 nM | < 0% | < 25%
16 | O=C1CCC(N2C(=O)c3ccc(NCCOCCOCCOCCNC(=O)[C@H](NC(=O)[C@@H](c4cccnc4)N(C(=O)c4ccco4)c4ccc(-c5ccccc5)cc4)c4ccccc4)cc3C2=O)C(=O)N1 (single isomer, unassigned) [TS465] | < 100 nM | < 25% | < 50%
17 | O=C1CCC(N2C(=O)c3ccc(N4CCN(C(=O)[C@H](NC(=O)[C@@H](c5cccnc5)N(C(=O)c5ccco5)c5ccc(-c6ccccc6)cc5)c5ccccc5)CC4)cc3C2=O)C(=O)N1 (single isomer, unassigned) [TS466] | < 100 nM | < 0% | < 0%

Row | Compound | IC50 [1] | inhibition at 10 µM [2] | inhibition at 50 µM [2]
18 | O=C1CCC(N2C(=O)c3cc(F)c(N4CCN(C(=O)[C@H](NC(=O)[C@@H](c5cccnc5)N(C(=O)c5ccco5)c5ccc(-c6ccccc6)cc5)c5ccccc5)CC4)cc3C2=O)C(=O)N1 (single isomer, unassigned) [TS467] | < 100 nM | < 25% | < 25%
19 | O=C1CCC(N2C(=O)c3ccc(N4CCN(CC5CCN(C(=O)[C@H](NC(=O)[C@@H](c6cccnc6)N(C(=O)c6ccco6)c6ccc(-c7ccccc7)cc6)c6ccccc6)CC5)CC4)cc3C2=O)C(=O)N1 (single isomer, unassigned) [TS470] | < 100 nM | < 25% | < 50%
20 | O=C1CCC(N2C(=O)c3cc(F)c(N4CCN(CC5CCN(C(=O)[C@H](NC(=O)[C@@H](c6cccnc6)N(C(=O)c6ccco6)c6ccc(-c7ccccc7)cc6)c6ccccc6)CC5)CC4)cc3C2=O)C(=O)N1 (single isomer, unassigned) [TS471] | < 1000 nM | < 25% | < 25%
21 | O=C(COc1ccc(C2CCC(=O)NC2=O)cc1)NCCNC(=O)[C@H](NC(=O)[C@@H](c1cccnc1)N(C(=O)c1ccco1)c1ccc(-c2ccccc2)cc1)c1ccccc1 (single isomer, unassigned) [TS476] | < 100 nM | < 0% | < 0%
22 | O=C(COc1ccc(C2CCC(=O)NC2=O)cc1)NCCCCNC(=O)[C@H](NC(=O)[C@@H](c1cccnc1)N(C(=O)c1ccco1)c1ccc(-c2ccccc2)cc1)c1ccccc1 (single isomer, unassigned) [TS477] | < 100 nM | < 0% | < 0%
23 | C[C@H](NC(=O)[C@@H](c1cccnc1)N(C(=O)c1ccco1)c1ccc(-c2ccccc2)cc1)c1ccccc1OCCCCOc1cccc2c1C(=O)N(C1CCC(=O)NC1=O)C2=O (stereo in doubt) [TS355F1] | < 10000 nM |  | 
24 | O=C1CCC(N2C(=O)c3cccc(OCCCCCCC(=O)Nc4cccn([C@@H](CC5CC5)C(=O)N[C@@H](C[C@@H]5CCNC5=O)C(=O)C(=O)NCc5ccccc5)c4=O)c3C2=O)C(=O)N1 (some centres unmarked) [BT150] | < 1000 nM | < 25% | < 25%
25 | O=C1CCC(N2C(=O)c3cccc(OCCCCCCCC(=O)Nc4cccn([C@@H](CC5CC5)C(=O)N[C@@H](C[C@@H]5CCNC5=O)C(=O)C(=O)NCc5ccccc5)c4=O)c3C2=O)C(=O)N1 (some centres unmarked) [BT152] | < 1000 nM | < 25% | < 50%
26 | O=C1CCC(N2C(=O)c3cccc(OCCCCCCNC(=O)c4ccc5cncc(N6C(=O)NC7(CC(c8ccccc8Cl)C7)C6=O)c5c4)c3C2=O)C(=O)N1 (centres unmarked) [Compound C10778L, 4-(2-(2-chlorophenyl)-6,8-dioxo-5,7-diazaspiro[3.4]octan-7-yl)-N-(6-((2-(2,6-dioxopiperidin-3-yl)-1,3-dioxoisoindolin-4-yl)oxy)hexyl)isoquinoline-6-carboxamide] | < 100 nM | < 25% | < 25%
27 | O=C1CCC(N2C(=O)c3cccc(NCCOCCOCCNC(=O)[C@@H](NC(=O)C(c4cccnc4)N(C(=O)c4ccco4)c4ccc5c(c4)oc4ccccc45)c4ccccc4)c3C2=O)C(=O)N1 (some centres unmarked) [TS302F1] | < 10000 nM |  | 
28 | C[C@@H](NC(=O)[C@H](c1cccnc1)N(C(=O)c1ccco1)c1ccc(-c2ccccc2)cc1)c1cccc(OCCCCOc2cccc3c2C(=O)N(C2CCC(=O)NC2=O)C3=O)c1 (some centres unmarked) [TS325F1] | < 10000 nM |  | 
29 | C[C@@H](NC(=O)C(c1cccnc1)N(C(=O)c1ccco1)c1ccc(-c2ccccc2)cc1)c1cccc(OCCCCOc2cccc3c2C(=O)N(C2CCC(=O)NC2=O)C3=O)c1 (some centres unmarked) [TS325F2] | < 10000 nM |  | 
30 | C[C@@H](NC(=O)[C@H](c1cccnc1)N(C(=O)c1ccco1)c1ccc(-c2ccccc2)cc1)c1cccc(OCCOc2cccc3c2C(=O)N(C2CCC(=O)NC2=O)C3=O)c1 (some centres unmarked) [TS338F1] | 10000 to 25000 nM |  | 
31 | C[C@@H](NC(=O)[C@H](c1cccnc1)N(C(=O)c1ccco1)c1ccc(-c2ccccc2)cc1)c1cccc(OCCCCCCCCOc2cccc3c2C(=O)N(C2CCC(=O)NC2=O)C3=O)c1 (some centres unmarked) [TS339F2] | 10000 to 25000 nM |  | 
32 | Cc1ncsc1-c1ccc(CNC(=O)[C@@H]2C[C@@H](O)CN2C(=O)[C@@H](NC(=O)C2(F)CC2)C(C)(C)C)c(OCCNC(=O)[C@@H](NC(=O)C(c2cccnc2)N(C(=O)c2ccco2)c2ccc3c(c2)oc2ccccc23)c2ccccc2)c1 (some centres unmarked) [TS347F1] | < 10000 nM |  | 
33 | Cc1ncsc1-c1ccc(CNC(=O)[C@@H]2C[C@@H](O)CN2C(=O)[C@@H](NC(=O)C2(F)CC2)C(C)(C)C)c(OCCCCCCNC(=O)[C@@H](NC(=O)C(c2cccnc2)N(C(=O)c2ccco2)c2ccc3c(c2)oc2ccccc23)c2ccccc2)c1 (some centres unmarked) [TS349F1] | < 10000 nM |  | 
